{
  "source": "patent US8318707B2",
  "about": "(priority 2006, dated 2012)",
  "key": {"[1]": {"test_system": "mixed neural culture of hippocampus cells exposed to kainate", "assay_type": "cell-based, rat"}, "[2]": {"test_system": "permanent focal ischemia (occlusion of the middle cerebral artery)", "experiment": "in vivo permanent focal ischemia model in mice (MCAo), lesion volume by TTC colouring"}, "[3]": {"test_system": "organotypical slices of rat hippocampus (CA3 region)", "experiment": "in vitro complex excitotoxicity model: organotypical rat hippocampus culture exposed to kainate", "settings": "20 μM, 24 hours"}},
  "data": [
    {"smiles": "CC[C@H](CO)Nc1nc(NCc2ccccc2)c2ncn(C(C)C)c2n1", "note": "[(R)-roscovitine]", "values": [
      {"measurement": "amount necessary compared with (S)-roscovitine to prevent the death of the same number of neurones", "setting": "[1]", "value": "Three times more"},
      {"measurement": "neuronal death percentage (RND)", "setting": "[1]", "value": 62, "unit": "%"}
    ]},
    {"smiles": "CC[C@@H](CO)Nc1nc(NCc2ccccc2)c2ncn(C(C)C)c2n1", "note": "[(S)-roscovitine]", "values": [
      {"measurement": "reduction in the size of the penumbra zone compared with the control", "setting": "[2]; ICV, 500 μM, 3 hours after occlusion", "value": 35.8, "unit": "%"},
      {"measurement": "volume of the necrotic core", "setting": "[2]; ICV, 500 μM, 3 hours after occlusion (control 6.06 mm3)", "value": 5.39, "unit": "mm3"},
      {"measurement": "volume of the penumbra zone", "setting": "[2]; ICV, 500 μM, 3 hours after occlusion (control 12.68 mm3)", "value": 8.14, "unit": "mm3"},
      {"measurement": "total volume of the lesion", "setting": "[2]; ICV, 500 μM, 3 hours after occlusion (control 18.74 mm3)", "value": 13.54, "unit": "mm3"},
      {"measurement": "reduction in the total volume of the lesion compared with the control", "setting": "[2]; intracerebroventricular (ICV), 500 μM by osmotic micropump from 48 hours before MCAo, 3 hours after occlusion", "value": 27.7, "unit": "%"},
      {"measurement": "reduction in the size of the penumbra compared with the control", "setting": "[2]; systemic (PI), 25 mg/kg intraperitoneal x2, 3 hours after occlusion", "value": 38.9, "unit": "%"},
      {"measurement": "volume of the necrotic core", "setting": "[2]; systemic (PI), 25 mg/kg intraperitoneal x2, 3 hours after occlusion (control 5.03 mm3)", "value": 4.88, "unit": "mm3"},
      {"measurement": "volume of the penumbra zone", "setting": "[2]; systemic (PI), 25 mg/kg intraperitoneal x2, 3 hours after occlusion (control 15.31 mm3)", "value": 9.22, "unit": "mm3"},
      {"measurement": "total volume of the lesion", "setting": "[2]; systemic (PI), 25 mg/kg intraperitoneal x2, 3 hours after occlusion (control 20.34 mm3)", "value": 14.10, "unit": "mm3"},
      {"measurement": "reduction in the total volume of the lesion compared with the control", "setting": "[2]; systemic (PI), 25 mg/kg, 2 intraperitoneal injections 15 minutes before and 1 hour after MCAo, 3 hours after occlusion", "value": 30.7, "unit": "%"},
      {"measurement": "neurones prevented from death compared with (R)-roscovitine", "setting": "[1]", "value": "twice as many"},
      {"measurement": "toxic effect on organotypical rat hippocampus cultures", "setting": "[3]", "value": "absence of toxic effect"}
    ]}
  ]
}
